Experimental data taken from patent US20220265694A1, “COMPOSITIONS AND METHODS FOR TREATING AN INFECTION” (CMPD LICENSING, LLC, priority 2016, published 2022).

Columns and labels:
Aspergillus flavus = experiment: Expected efficacy of antifungal agents; details: expected efficacy against Aspergillus flavus
Aspergillus fumigatus = experiment: Expected efficacy of antifungal agents; details: expected efficacy against Aspergillus fumigatus
Aspergillus niger = experiment: Expected efficacy of antifungal agents; details: expected efficacy against Aspergillus niger
Aspergillus terreus = experiment: Expected efficacy of antifungal agents; details: expected efficacy against Aspergillus terreus
Candida species = experiment: Expected efficacy of antifungal agents; details: expected efficacy against Candida species
Fusarium species = experiment: Expected efficacy of antifungal agents; details: expected efficacy against Fusarium species
Scedosporium apiospermum = experiment: Expected efficacy of antifungal agents; details: expected efficacy against Scedosporium apiospermum
Bacteroides fragilis = experiment: Expected efficacy of antibiotic agents; details: expected efficacy against Bacteroides fragilis; Gram: anaer
Clostridium difficile = experiment: Expected efficacy of antibiotic agents; details: expected efficacy against Clostridium difficile; Gram: anaer
Chlamydia pneumoniae = experiment: Expected efficacy of antibiotic agents; details: expected efficacy against Chlamydia pneumoniae; Gram: n/a
Chlamydia psittaci = details: expected efficacy against Chlamydia psittaci; Gram: n/a
Chlamydia trachomatis = experiment: Expected efficacy of antibiotic agents; details: expected efficacy against Chlamydia trachomatis; Gram: n/a
Mycoplasma pneumoniae = experiment: Expected efficacy of antibiotic agents; details: expected efficacy against Mycoplasma pneumoniae; Gram: n/a
Bordetella pertussis = experiment: Expected efficacy of antibiotic agents; details: expected efficacy against Bordetella pertussis; Gram: neg
Brucella species = details: expected efficacy against Brucella species; Gram: neg
Enterobacter aerogenes = experiment: Expected efficacy of antibiotic agents; details: expected efficacy against Enterobacter aerogenes; Gram: neg
Enterobacter cloacae = experiment: Expected efficacy of antibiotic agents; details: expected efficacy against Enterobacter cloacae; Gram: neg
Enterobacter sakazakii = experiment: Expected efficacy of antibiotic agents; details: expected efficacy against Enterobacter sakazakii; Gram: neg
Escherichia coli = experiment: Expected efficacy of antibiotic agents; details: expected efficacy against Escherichia coli; Gram: neg
[1] = system: Haemophilus parainfluenzae; experiment: Expected efficacy of antibiotic agents; details: expected efficacy against Haemophilus parainfluenzae; Gram: neg
[2] = system: Klebsiella (Calymmatobacterium); experiment: Expected efficacy of antibiotic agents; details: expected efficacy against Klebsiella (Calymmatobacterium); Gram: neg
Klebsiella oxytoca = experiment: Expected efficacy of antibiotic agents; details: expected efficacy against Klebsiella oxytoca; Gram: neg
Klebsiella pneumoniae = experiment: Expected efficacy of antibiotic agents; details: expected efficacy against Klebsiella pneumoniae; Gram: neg
Legionella pneumophila = details: expected efficacy against Legionella pneumophila; Gram: neg
Moraxella catarrhalis = experiment: Expected efficacy of antibiotic agents; details: expected efficacy against Moraxella catarrhalis; Gram: neg
Neisseria gonorrhoeae = experiment: Expected efficacy of antibiotic agents; details: expected efficacy against Neisseria gonorrhoeae; Gram: neg
Neisseria meningitidis = experiment: Expected efficacy of antibiotic agents; details: expected efficacy against Neisseria meningitidis; Gram: neg
Proteus mirabilis = experiment: Expected efficacy of antibiotic agents; details: expected efficacy against Proteus mirabilis; Gram: neg
Proteus vulgaris = experiment: Expected efficacy of antibiotic agents; details: expected efficacy against Proteus vulgaris; Gram: neg
Providencia rettgeri = experiment: Expected efficacy of antibiotic agents; details: expected efficacy against Providencia rettgeri; Gram: neg
Providencia stuartii = experiment: Expected efficacy of antibiotic agents; details: expected efficacy against Providencia stuartii; Gram: neg
Pseudomonas aeruginosa = experiment: Expected efficacy of antibiotic agents; details: expected efficacy against Pseudomonas aeruginosa; Gram: neg
Pseudomonas fluorescens = experiment: Expected efficacy of antibiotic agents; details: expected efficacy against Pseudomonas fluorescens; Gram: neg
Serratia marcescens = experiment: Expected efficacy of antibiotic agents; details: expected efficacy against Serratia marcescens; Gram: neg
Vibrio cholerae = experiment: Expected efficacy of antibiotic agents; details: expected efficacy against Vibrio cholerae; Gram: neg
Corynebacterium jeikeium = experiment: Expected efficacy of antibiotic agents; details: expected efficacy against Corynebacterium jeikeium; Gram: pos
[3] = system: Corynebacterium urealyticum; experiment: Expected efficacy of antibiotic agents; details: expected efficacy against Corynebacterium urealyticum; Gram: pos
Diphtheroids = experiment: Expected efficacy of antibiotic agents; details: expected efficacy against Diphtheroids; Gram: pos
Enterococcus faecalis = experiment: Expected efficacy of antibiotic agents; details: expected efficacy against Enterococcus faecalis; Gram: pos
Enterococcus faecium = experiment: Expected efficacy of antibiotic agents; details: expected efficacy against Enterococcus faecium; Gram: pos
[4] = system: Methicillin resistant staph aureus (MRSA); experiment: Expected efficacy of antibiotic agents; details: expected efficacy against Methicillin resistant staph aureus (MRSA); Gram: pos
Peptostreptococcus = experiment: Expected efficacy of antibiotic agents; details: expected efficacy against Peptostreptococcus; Gram: pos
[5] = system: Staphylococcus aureus (MSSA); experiment: Expected efficacy of antibiotic agents; details: expected efficacy against Staphylococcus aureus (MSSA); Gram: pos
[6] = system: Staphylococcus epidermidis; experiment: Expected efficacy of antibiotic agents; details: expected efficacy against Staphylococcus epidermidis; Gram: pos
Streptococcus agalactiae = experiment: Expected efficacy of antibiotic agents; details: expected efficacy against Streptococcus agalactiae; Gram: pos
Streptococcus pneumoniae = experiment: Expected efficacy of antibiotic agents; details: expected efficacy against Streptococcus pneumoniae; Gram: pos
Streptococcus pyogenes = experiment: Expected efficacy of antibiotic agents; details: expected efficacy against Streptococcus pyogenes; Gram: pos
[7] = system: Viridans group streptococci; experiment: Expected efficacy of antibiotic agents; details: expected efficacy against Viridans group streptococci; Gram: pos
Blastomyces dermatitidis = experiment: Expected efficacy of antifungal agents; details: expected efficacy against Blastomyces dermatitidis
Coccidioides immitis = details: expected efficacy against Coccidioides immitis
Cryptococcus neoformans = experiment: Expected efficacy of antifungal agents; details: expected efficacy against Cryptococcus neoformans
Histoplasma capsulatum = details: expected efficacy against Histoplasma capsulatum
Clostridium perfringens = details: expected efficacy against Clostridium perfringens; Gram: anaer
Acinetobacter baumannii = experiment: Expected efficacy of antibiotic agents; details: expected efficacy against Acinetobacter baumannii; Gram: neg
[8] = system: Acinetobacter calcoaceticus; experiment: Expected efficacy of antibiotic agents; details: expected efficacy against Acinetobacter calcoaceticus; Gram: neg
Acinetobacter lwoffii = experiment: Expected efficacy of antibiotic agents; details: expected efficacy against Acinetobacter lwoffii; Gram: neg
Campylobacter jejuni = experiment: Expected efficacy of antibiotic agents; details: expected efficacy against Campylobacter jejuni; Gram: neg
Citrobacter diversus = experiment: Expected efficacy of antibiotic agents; details: expected efficacy against Citrobacter diversus; Gram: neg
Citrobacter freundii = experiment: Expected efficacy of antibiotic agents; details: expected efficacy against Citrobacter freundii; Gram: neg
Haemophilus ducreyi = experiment: Expected efficacy of antibiotic agents; details: expected efficacy against Haemophilus ducreyi; Gram: neg
Haemophilus influenzae = experiment: Expected efficacy of antibiotic agents; details: expected efficacy against Haemophilus influenzae; Gram: neg
Shigella boydii = experiment: Expected efficacy of antibiotic agents; details: expected efficacy against Shigella boydii; Gram: neg
Shigella dysenteriae = experiment: Expected efficacy of antibiotic agents; details: expected efficacy against Shigella dysenteriae; Gram: neg
Shigella flexneri = experiment: Expected efficacy of antibiotic agents; details: expected efficacy against Shigella flexneri; Gram: neg
Shigella sonnei = experiment: Expected efficacy of antibiotic agents; details: expected efficacy against Shigella sonnei; Gram: neg
Yersinia pestis = details: expected efficacy against Yersinia pestis; Gram: neg
Leishmania donovani = experiment: Expected efficacy of antifungal agents; details: expected efficacy against Leishmania donovani
Leishmania infantum = experiment: Expected efficacy of antifungal agents; details: expected efficacy against Leishmania infantum
[9] = system: Paracoccidioides brasiliensis; experiment: Expected efficacy of antifungal agents; details: expected efficacy against Paracoccidioides brasiliensis

Measured: Efficacy

C[C@@H](c1ncncc1F)[C@](O)(Cn1cncn1)c1ccc(F)cc1F [Voriconazole]
yes: Aspergillus flavus | Aspergillus fumigatus | Aspergillus niger | Aspergillus terreus | Candida species | Fusarium species | Scedosporium apiospermum

Colistimethate
yes: Enterobacter aerogenes | Enterobacter cloacae | Enterobacter sakazakii | Escherichia coli | [2] | Klebsiella oxytoca | Klebsiella pneumoniae | Pseudomonas aeruginosa | Pseudomonas fluorescens
not listed: Aspergillus flavus | Aspergillus fumigatus | Aspergillus niger | Aspergillus terreus | Candida species | Fusarium species | Scedosporium apiospermum | Blastomyces dermatitidis | Coccidioides immitis | Cryptococcus neoformans | Histoplasma capsulatum | Clostridium perfringens | Acinetobacter baumannii | [8] | Acinetobacter lwoffii | Campylobacter jejuni | Citrobacter diversus | Citrobacter freundii | Haemophilus ducreyi | Haemophilus influenzae | Shigella boydii | Shigella dysenteriae | Shigella flexneri | Shigella sonnei | Yersinia pestis | Leishmania donovani | Leishmania infantum | [9]
no: all other assays above

OC(Cn1cncn1)(Cn1cncn1)c1ccc(F)cc1F [Fluconazole]
yes: Aspergillus flavus | Aspergillus fumigatus | Blastomyces dermatitidis | Candida species | Coccidioides immitis | Cryptococcus neoformans | Histoplasma capsulatum

NC[C@H]1O[C@H](O[C@H]2[C@H](O)[C@@H](O[C@H]3O[C@H](CO)[C@@H](O)[C@H](N)[C@H]3O)[C@H](N)C[C@@H]2N)[C@H](N)C[C@@H]1O [Tobramycin]
yes: Campylobacter jejuni | Citrobacter diversus | Citrobacter freundii | Enterobacter aerogenes | Enterobacter cloacae | Enterobacter sakazakii | Escherichia coli | Haemophilus ducreyi | Haemophilus influenzae | [2] | Klebsiella oxytoca | Klebsiella pneumoniae | Moraxella catarrhalis | Proteus mirabilis | Proteus vulgaris | Pseudomonas aeruginosa | Pseudomonas fluorescens | Serratia marcescens | Shigella boydii | Shigella dysenteriae | Shigella flexneri | Shigella sonnei | Yersinia pestis
not listed: Aspergillus flavus | Aspergillus fumigatus | Aspergillus niger | Aspergillus terreus | Candida species | Fusarium species | Scedosporium apiospermum | Brucella species | [1] | Providencia rettgeri | Providencia stuartii | Diphtheroids | Blastomyces dermatitidis | Coccidioides immitis | Cryptococcus neoformans | Histoplasma capsulatum | Leishmania donovani | Leishmania infantum | [9]
no: all other assays above

C[C@@H]1[C@H](O)[C@@H](C)/C=C/C=C/C=C/C=C/C=C/C=C/C=C/[C@H](O[C@@H]2O[C@H](C)[C@@H](O)[C@H](N)[C@@H]2O)C[C@@H]2O[C@](O)(C[C@@H](O)C[C@@H](O)[C@H](O)CC[C@@H](O)C[C@@H](O)CC(=O)O[C@H]1C)C[C@H](O)[C@H]2C(=O)O [Amphotericin]
yes: Aspergillus flavus | Aspergillus fumigatus | Aspergillus niger | Aspergillus terreus | Blastomyces dermatitidis | Candida species | Coccidioides immitis | Cryptococcus neoformans | Histoplasma capsulatum | Leishmania donovani | Leishmania infantum | [9]
